Key:
Fusarium graminearum = experiment: microbe, parasite or virus in culture; type: cell-based; settings: F.g sensitive strains
Fusarium asiaticum = experiment: microbe, parasite or virus in culture; type: cell-based; settings: F.a sensitive strains

## CCOC(=O)C(C#N)=C(N)c1ccccc1 [phenamacril]
Fusarium graminearum
  Median Effective Concentration (EC50) for Growth Inhibition: 0.165 µg/mL
Fusarium asiaticum
  Median Effective Concentration (EC50) for Growth Inhibition: 0.165 µg/mL

From patent US10588316B2 (priority 2015, dated 2020)
